Ki data for 11 compounds are collected here from patent US8796289B2 (AbbVie Inc., priority 2011, dated 2014).

The target in this assay is GST-tagged-Wee1 kinase (Homo sapiens, UniProt P30291). In words: Wee1 time-resolved fluorescence equilibrium binding assay (displacement of Oregon Green-labeled ATP-competitive kinase probe). The protocol: Wee1 kinase was assayed using a time-resolved fluorescence equilibrium binding assay monitoring displacement of a rapidly reversible Oregon Green-labeled ATP-competitive kinase probe (N-(2-(2-(2-(4-(4-(5-chloro-4-(2-(1-hydroxycyclobutyl)thiazol-5-yl)-1H-pyrrolo[2,3-b]pyridin-2-yl)phenyl)piperazin-1-yl)ethoxy)ethoxy)ethyl)-2′,7′-difluoro-3′,6′-dihydroxy-3-oxo-3H-spiro[isobenzofuran-1,9′-xanthene]-5-carboxamide) by competitive Wee1 inhibitors.
Chain of GST-tagged-Wee1 kinase (P30291 whole entry): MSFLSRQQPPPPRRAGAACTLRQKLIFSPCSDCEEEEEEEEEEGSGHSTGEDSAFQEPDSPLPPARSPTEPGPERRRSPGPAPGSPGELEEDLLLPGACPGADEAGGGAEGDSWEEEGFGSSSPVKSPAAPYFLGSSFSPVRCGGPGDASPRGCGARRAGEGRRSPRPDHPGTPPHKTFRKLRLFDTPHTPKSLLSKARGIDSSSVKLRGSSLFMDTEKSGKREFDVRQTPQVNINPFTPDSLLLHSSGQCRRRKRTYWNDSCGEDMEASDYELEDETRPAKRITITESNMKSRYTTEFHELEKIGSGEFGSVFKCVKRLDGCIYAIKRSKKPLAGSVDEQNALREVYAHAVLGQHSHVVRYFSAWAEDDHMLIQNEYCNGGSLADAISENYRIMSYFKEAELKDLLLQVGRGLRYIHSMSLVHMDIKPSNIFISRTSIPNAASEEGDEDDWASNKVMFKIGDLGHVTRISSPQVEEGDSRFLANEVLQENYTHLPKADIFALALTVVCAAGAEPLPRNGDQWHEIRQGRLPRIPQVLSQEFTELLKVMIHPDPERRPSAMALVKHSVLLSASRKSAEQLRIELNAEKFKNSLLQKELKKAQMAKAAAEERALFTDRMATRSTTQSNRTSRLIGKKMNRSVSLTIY
Take `CC1(C)CNCc2cc(Nc3ncc4c(=O)n(C5CCCCC5)nc(-c5ccccn5)c4n3)ccc21` [Example 294, 6-cyclohexyl-2-[(4,4-dimethyl-1,2,3,4-tetrahydroisoquinolin-7-yl)amino]-8-(pyridin-2-yl)pyrimido[4,5-d]pyridazin-5(6H)-one]: affinity was put at a Ki of 629 nM.

Compound `CC(O)Cn1nc(-c2ccccn2)c2nc(Nc3ccc4c(c3)CNCC4(C)C)ncc2c1=O` (centres unmarked) [Example 295, 2-[(4,4-dimethyl-1,2,3,4-tetrahydroisoquinolin-7-yl)amino]-6-(2-hydroxypropyl)-8-(pyridin-2-yl)pyrimido[4,5-d]pyridazin-5(6H)-one] yielded a Ki of 501 nM.

In the case of `CN1CCN(c2ccc(Nc3ncc4c(=O)n(-c5c(F)cccc5Cl)nc(-c5ccncc5)c4n3)cc2)CC1` [Example 296, 6-(2-chloro-6-fluorophenyl)-2-{[4-(4-methylpiperazin-1-yl)phenyl]amino}-8-(pyridin-4-yl)pyrimido[4,5-d]pyridazin-5(6H)-one], the inhibition constant Ki was determined as 0.27 nM.

`O=c1c2cnc(Nc3ccc(N4CCNCC4)cc3)nc2c(-c2ccncc2)nn1-c1c(F)cccc1Cl` [Example 297, 6-(2-chloro-6-fluorophenyl)-2-{[4-(piperazin-1-yl)phenyl]amino}-8-(pyridin-4-yl)pyrimido[4,5-d]pyridazin-5(6H)-one] had a Ki of 0.19 nM.

As to `CN1CCN(c2ccc(Nc3ncc4c(=O)n(-c5c(F)cccc5Cl)nc(-c5ccncn5)c4n3)cc2)CC1` [Example 298, 6-(2-chloro-6-fluorophenyl)-2-{[4-(4-methylpiperazin-1-yl)phenyl]amino}-8-(pyrimidin-4-yl)pyrimido[4,5-d]pyridazin-5(6H)-one], the Ki worked out at 1.8 nM.

Compound `CCOc1cccc(-c2nn(-c3c(F)cccc3Cl)c(=O)c3cnc(Nc4ccc(N5CCN(C)CC5)cc4)nc23)n1` [Example 299, 6-(2-chloro-6-fluorophenyl)-8-(6-ethoxypyridin-2-yl)-2-{[4-(4-methylpiperazin-1-yl)phenyl]amino}pyrimido[4,5-d]pyridazin-5(6H)-one] had a Ki of 0.99 nM.

Compound `Cc1nn(-c2c(Cl)cccc2Cl)c(=O)c2cnc(Nc3ccc4c(c3)CNCC43CC3)nc12` [Example 300, 6-(2,6-dichlorophenyl)-2-(2′,3′-dihydro-1′H-spiro[cyclopropane-1,4′-isoquinolin]-7′-ylamino)-8-methylpyrimido[4,5-d]pyridazin-5(6H)-one] yielded a Ki of 0.12 nM.

Turning to `O=c1c2cnc(Nc3ccc(N4CCN(C5CCC5)CC4)cc3)nc2c(-c2ccncc2)nn1-c1c(Cl)cccc1Cl` [Example 301, 2-{[4-(4-cyclobutylpiperazin-1-yl)phenyl]amino}-6-(2,6-dichlorophenyl)-8-(pyridin-4-yl)pyrimido[4,5-d]pyridazin-5(6H)-one], affinity was put at a Ki of 2.7 nM.

In the case of `CN1CCN(c2ccc(Nc3ncc4c(=O)n(-c5c(F)cccc5Cl)nc(-c5cnn(C)c5)c4n3)cc2)CC1` [Example 302, 6-(2-chloro-6-fluorophenyl)-2-{[4-(4-methylpiperazin-1-yl)phenyl]amino}-8-(1-methyl-1H-pyrazol-4-yl)pyrimido[4,5-d]pyridazin-5(6H)-one], the affinity corresponds to a Ki of 0.61 nM.

As for `CN1CCN(c2ccc(Nc3ncc4c(=O)n(-c5c(F)cccc5Cl)nc(-c5cccc(O)n5)c4n3)cc2)CC1` [Example 303, 6-(2-chloro-6-fluorophenyl)-8-(6-hydroxypyridin-2-yl)-2-{[4-(4-methylpiperazin-1-yl)phenyl]amino}pyrimido[4,5-d]pyridazin-5(6H)-one], the Ki came to 2.8 nM.

Regarding `CN1Cc2cc(Nc3ncc4c(=O)n(C5CCNCC5)nc(-c5ccccn5)c4n3)ccc2C(C)(C)C1` [Example 304, 6-(piperidin-4-yl)-8-(pyridin-2-yl)-2-[(2,4,4-trimethyl-1,2,3,4-tetrahydroisoquinolin-7-yl)amino]pyrimido[4,5-d]pyridazin-5(6H)-one], the affinity, expressed as Ki, was 610 nM.

What is called Ki is a measure of affinity in units of concentration, obtained from inhibition or displacement. Low values mean tighter binding, high ones weaker binding.
